Earlier results in patent publication US9717712B2, “Combinations comprising tricyclohexadecahexaene derivatives for use in the treatment of hepatitis C virus” (BRISTOL-MYERS SQUIBB COMPANY, priority 2013, dated 2017).
pEC50: −log10 of the molar value. Like-named read-outs stand apart in the source and are kept apart here.

Test system: HCV genotype 1a variant with glutamine 30 changed to glutamate in the NS5A protein (Q30E)
Conditions: genotype 1a Q30E replicon
[1] = single agent, read-out: EC50, compound titrated singly

SMILES | pEC50 (BMS-790052 fixed at 200 nM, read-out: EC50 of P-55 in the presence of a fixed amount of BMS-790052) | synergistic inhibitory effect for the combination (P-55 titrated with BMS-790052 fixed at 200 nM) [fold] | pEC50 [1] | reciprocal synergistic inhibitory effect for the combination (BMS-790052 titrated with P-55 fixed at 200 nM) [fold] | pEC50 (P-55 fixed at 200 nM, read-out: EC50 of BMS-790052 in the presence of a fixed amount of P-55)
CC(C)CC(=O)N[C@H](c1ncc(-c2ccc(-c3ccc(-c4cnc([C@@H](NC(=O)CC(C)C)C(C)C)[nH]4)cc3)cc2)[nH]1)C(C)C [Compound P-55] | ~8.70 | > 100 | < 6.70 |  | 
COC(=O)N[C@H](C(=O)N1CCC[C@H]1c1nc(-c2ccc(-c3ccc(-c4c[nH]c([C@@H]5CCCN5C(=O)[C@@H](NC(=O)OC)C(C)C)n4)cc3)cc2)c[nH]1)C(C)C [BMS-790052] |  |  | ~6.70 | ~100 | ~8.70
